Data: the NIST ThermoML archive (doi:10.1016/j.jct.2018.12.031)

Assay: xn = mol fraction of the nth substance listed
Conditions: 100 kPa, Liquid; for speed of sound: Frequency=3 MHz, Linear variable-path acoustic interferometer; for mass density: Pycnometric method

N#Cc1ccccc1 [benzonitrile] + C=C(C)C(=O)OC
Conditions	mass density [kg/m3]	speed of sound [m/s]
293.15 K, x1 = 0.0652	948.11	1220.4
293.15 K, x1 = 0.1303	952.71	1239.9
293.15 K, x1 = 0.1922	956.98	1258.1
293.15 K, x1 = 0.271	962.27	1279.6
293.15 K, x1 = 0.3371	966.59	1296.9
293.15 K, x1 = 0.4174	971.69	1316.8
293.15 K, x1 = 0.4872	976	1333.2
293.15 K, x1 = 0.5689	980.9	1351.4
293.15 K, x1 = 0.6398	985.02	1366.6
293.15 K, x1 = 0.7089	988.92	1381.1
293.15 K, x1 = 0.7767	992.63	1394.4
293.15 K, x1 = 0.8571	996.88	1410
293.15 K, x1 = 0.9252	1000.34	1422.4
293.15 K, x1 = 1	1003.99	1436.9
298.15 K, x1 = 0.0652	942.55	1203.9
298.15 K, x1 = 0.1303	947.32	1223.6
298.15 K, x1 = 0.1922	951.75	1241.7
298.15 K, x1 = 0.271	957.23	1263.3
298.15 K, x1 = 0.3371	961.71	1280.2
298.15 K, x1 = 0.4174	966.99	1299.9
298.15 K, x1 = 0.4872	971.45	1316.2
298.15 K, x1 = 0.5689	976.51	1334.3
298.15 K, x1 = 0.6398	980.77	1349.3
298.15 K, x1 = 0.7089	984.8	1363.6
298.15 K, x1 = 0.7767	988.63	1376.7
298.15 K, x1 = 0.8571	993.01	1392.3
298.15 K, x1 = 0.9252	996.57	1404.6
298.15 K, x1 = 1	1000.32	1418.2
303.15 K, x1 = 0.0652	936.99	1189.3
303.15 K, x1 = 0.1303	941.93	1209
303.15 K, x1 = 0.1922	946.52	1227
303.15 K, x1 = 0.271	952.19	1248.3
303.15 K, x1 = 0.3371	956.83	1265.4
303.15 K, x1 = 0.4174	962.29	1284.8
303.15 K, x1 = 0.4872	966.9	1300.8
303.15 K, x1 = 0.5689	972.12	1319
303.15 K, x1 = 0.6398	976.52	1333.8
303.15 K, x1 = 0.7089	980.68	1348
303.15 K, x1 = 0.7767	984.63	1360.9
303.15 K, x1 = 0.8571	989.14	1376
303.15 K, x1 = 0.9252	992.8	1388.2
303.15 K, x1 = 1	996.65	1400.7
308.15 K, x1 = 0.0652	931.43	1173.8
308.15 K, x1 = 0.1303	936.55	1193.9
308.15 K, x1 = 0.1922	941.29	1211.7
308.15 K, x1 = 0.271	947.15	1232.7
308.15 K, x1 = 0.3371	951.93	1249.6
308.15 K, x1 = 0.4174	957.57	1268.8
308.15 K, x1 = 0.4872	962.33	1284.7
308.15 K, x1 = 0.5689	967.73	1302.9
308.15 K, x1 = 0.6398	972.27	1317.9
308.15 K, x1 = 0.7089	976.56	1332
308.15 K, x1 = 0.7767	980.63	1345.5
308.15 K, x1 = 0.8571	985.27	1360.6
308.15 K, x1 = 0.9252	989.03	1372
308.15 K, x1 = 1	992.98	1384
313.15 K, x1 = 0.0652	925.87	1157
313.15 K, x1 = 0.1303	931.16	1177.3
313.15 K, x1 = 0.1922	936.06	1195.3
313.15 K, x1 = 0.271	942.12	1216.5
313.15 K, x1 = 0.3371	947.05	1233.2
313.15 K, x1 = 0.4174	952.87	1252.4
313.15 K, x1 = 0.4872	957.78	1268.5
313.15 K, x1 = 0.5689	963.35	1286.5
313.15 K, x1 = 0.6398	968.02	1302.2
313.15 K, x1 = 0.7089	972.44	1316.5
313.15 K, x1 = 0.7767	976.63	1330.5
313.15 K, x1 = 0.8571	981.4	1345.5
313.15 K, x1 = 0.9252	985.26	1357.2
313.15 K, x1 = 1	989.31	1368.2
318.15 K, x1 = 0.0652	920.31	1140.3
318.15 K, x1 = 0.1303	925.77	1160.8
318.15 K, x1 = 0.1922	930.83	1179
318.15 K, x1 = 0.271	937.08	1200
318.15 K, x1 = 0.3371	942.18	1216.8
318.15 K, x1 = 0.4174	948.18	1236
318.15 K, x1 = 0.4872	953.23	1251.9
318.15 K, x1 = 0.5689	958.96	1270.3
318.15 K, x1 = 0.6398	963.77	1286
318.15 K, x1 = 0.7089	968.31	1300.9
318.15 K, x1 = 0.7767	972.61	1315
318.15 K, x1 = 0.8571	977.51	1330.8
318.15 K, x1 = 0.9252	981.48	1342.4
318.15 K, x1 = 1	985.64	1352.9
